Source: US20240041991A1, “STABLE LIQUID DISPERSINB COMPOSITIONS” (KANE BIOTECH INC., priority 2020, published 2024)
Read-outs that look alike come from different tables or passages of the source. Marks after values point to notes of the source that are not given here.

Test system: DispersinB
Format: biochemical, Aggregatibacter actinomycetemcomitans
Conditions: for % enzymatic activity of DispersinB (Mean): polyol % as in label; for temperature stabilizing effect on DispersinB at elevated temperatures: 42° C., 52° C., and 62° C.
Protocol: Samples from each formula was incubated at 3 different temperatures (42° C., 52° C. and 62° C.) for 3 hours. Following a 3 hour incubation, the samples were brought to room temperature for enzymatic activity assay.
Two-tailed paired T-test was performed by to compare each polyol containing treatment with the treatment devoid of polyol. Treatment with probability values (p) less than 5% (0.05) was considered significant.

OC[C@@H](O)[C@@H](O[C@H]1O[C@H](CO)[C@@H](O)[C@H](O)[C@H]1O)[C@H](O)[C@@H](O)CO [Maltitol, 4-O-α-D-Glucopyranosyl-D-glucitol]
% enzymatic activity of DispersinB (Mean) (4° C., freshly made control without polyol = 100%, listed as 1% Maltitol): 102% | % enzymatic activity of DispersinB (Mean) (4° C., freshly made control without polyol = 100%, listed as 2.5% Maltitol): 99% | % enzymatic activity of DispersinB (Mean) (4° C., freshly made control without polyol = 100%, listed as 5% Maltitol): 95% | % enzymatic activity of DispersinB (Mean) (4° C., freshly made control without polyol = 100%, listed as 10% Maltitol): 138* % | % enzymatic activity of DispersinB (Mean) (4° C., freshly made control without polyol = 100%, listed as 15% Maltitol): 104% | % enzymatic activity of DispersinB (Mean) (4° C., freshly made control without polyol = 100%, listed as 20% Maltitol): 107% | % enzymatic activity of DispersinB (Mean) (4° C., freshly made control without polyol = 100%, listed as 25% Maltitol): 102% | % enzymatic activity of DispersinB (Mean) (42° C. for 3 hours, control without polyol = 100%, listed as 1% Maltitol): 106* % | % enzymatic activity of DispersinB (Mean) (42° C. for 3 hours, control without polyol = 100%, listed as 2.5% Maltitol): 110* % | % enzymatic activity of DispersinB (Mean) (42° C. for 3 hours, control without polyol = 100%, listed as 5% Maltitol): 107* % | % enzymatic activity of DispersinB (Mean) (42° C. for 3 hours, control without polyol = 100%, listed as 10% Maltitol): 143* % | % enzymatic activity of DispersinB (Mean) (42° C. for 3 hours, control without polyol = 100%, listed as 15% Maltitol): 110* % | % enzymatic activity of DispersinB (Mean) (42° C. for 3 hours, control without polyol = 100%, listed as 20% Maltitol): 116* % | % enzymatic activity of DispersinB (Mean) (42° C. for 3 hours, control without polyol = 100%, listed as 25% Maltitol): 129* % | % enzymatic activity of DispersinB (Mean) (52° C. for 3 hours, control without polyol = 100%, listed as 1% Maltitol): 17* % | % enzymatic activity of DispersinB (Mean) (52° C. for 3 hours, control without polyol = 100%, listed as 2.5% Maltitol): 24* % | % enzymatic activity of DispersinB (Mean) (52° C. for 3 hours, control without polyol = 100%, listed as 5% Maltitol): 37* % | % enzymatic activity of DispersinB (Mean) (52° C. for 3 hours, control without polyol = 100%, listed as 10% Maltitol): 111* % | % enzymatic activity of DispersinB (Mean) (52° C. for 3 hours, control without polyol = 100%, listed as 15% Maltitol): 102* % | % enzymatic activity of DispersinB (Mean) (52° C. for 3 hours, control without polyol = 100%, listed as 20% Maltitol): 113* % | % enzymatic activity of DispersinB (Mean) (52° C. for 3 hours, control without polyol = 100%, listed as 25% Maltitol): 120* % | % enzymatic activity of DispersinB (Mean) (62° C. for 3 hours, control without polyol = 100%, listed as 1% Maltitol): 0% | % enzymatic activity of DispersinB (Mean) (62° C. for 3 hours, control without polyol = 100%, listed as 2.5% Maltitol): 0% | % enzymatic activity of DispersinB (Mean) (62° C. for 3 hours, control without polyol = 100%, listed as 5% Maltitol): 0% | % enzymatic activity of DispersinB (Mean) (62° C. for 3 hours, control without polyol = 100%, listed as 10% Maltitol): 6* % | % enzymatic activity of DispersinB (Mean) (62° C. for 3 hours, control without polyol = 100%, listed as 15% Maltitol): 8* % | % enzymatic activity of DispersinB (Mean) (62° C. for 3 hours, control without polyol = 100%, listed as 20% Maltitol): 7* % | % enzymatic activity of DispersinB (Mean) (62° C. for 3 hours, control without polyol = 100%, listed as 25% Maltitol): 5* %

OC[C@@H](O)[C@@H](O)[C@H](O)[C@H](O)CO [Mannitol]
% enzymatic activity of DispersinB (Mean) (4° C., freshly made control without polyol = 100%, listed as 1% Mannitol): 98% | % enzymatic activity of DispersinB (Mean) (4° C., freshly made control without polyol = 100%, listed as 2.5% Mannitol): 100% | % enzymatic activity of DispersinB (Mean) (4° C., freshly made control without polyol = 100%, listed as 5% Mannitol): 98% | % enzymatic activity of DispersinB (Mean) (4° C., freshly made control without polyol = 100%, listed as 10% Mannitol): 102% | % enzymatic activity of DispersinB (Mean) (4° C., freshly made control without polyol = 100%, listed as 12% Mannitol): 97% | % enzymatic activity of DispersinB (Mean) (42° C. for 3 hours, control without polyol = 100%, listed as 1% Mannitol): 77% | % enzymatic activity of DispersinB (Mean) (42° C. for 3 hours, control without polyol = 100%, listed as 2.5% Mannitol): 87* % | % enzymatic activity of DispersinB (Mean) (42° C. for 3 hours, control without polyol = 100%, listed as 5% Mannitol): 88* % | % enzymatic activity of DispersinB (Mean) (42° C. for 3 hours, control without polyol = 100%, listed as 10% Mannitol): 87* % | % enzymatic activity of DispersinB (Mean) (42° C. for 3 hours, control without polyol = 100%, listed as 12% Mannitol): 86* % | temperature stabilizing effect on DispersinB at elevated temperatures: did not exhibit temperature stabilizing effects | % enzymatic activity of DispersinB (Mean) (52° C. for 3 hours, control without polyol = 100%, listed as 5% Mannitol): 1* % | % enzymatic activity of DispersinB (Mean) (52° C. for 3 hours, control without polyol = 100%, listed as 10% Mannitol): 14* % | % enzymatic activity of DispersinB (Mean) (52° C. for 3 hours, control without polyol = 100%, listed as 12% Mannitol): 53* %

OCC(O)CO [glycerol, Propane-1,2,3-triol]
% enzymatic activity of DispersinB (Mean) (4° C., freshly made control without polyol = 100%, listed as Glycerol 1%): 117* % | % enzymatic activity of DispersinB (Mean) (4° C., freshly made control without polyol = 100%, listed as Glycerol 2.5%): 114* % | % enzymatic activity of DispersinB (Mean) (4° C., freshly made control without polyol = 100%, listed as Glycerol 5%): 116* % | % enzymatic activity of DispersinB (Mean) (4° C., freshly made control without polyol = 100%, listed as Glycerol 10%): 124* % | % enzymatic activity of DispersinB (Mean) (4° C., freshly made control without polyol = 100%, listed as Glycerol 20%): 128* % | % enzymatic activity of DispersinB (Mean) (4° C., freshly made control without polyol = 100%, listed as Glycerol 30%): 131* % | % enzymatic activity of DispersinB (Mean) (42° C. for 3 hours, control without polyol = 100%, listed as Glycerol 1%): 94* % | % enzymatic activity of DispersinB (Mean) (42° C. for 3 hours, control without polyol = 100%, listed as Glycerol 2.5%): 98* % | % enzymatic activity of DispersinB (Mean) (42° C. for 3 hours, control without polyol = 100%, listed as Glycerol 5%): 90* % | % enzymatic activity of DispersinB (Mean) (42° C. for 3 hours, control without polyol = 100%, listed as Glycerol 10%): 115* % | % enzymatic activity of DispersinB (Mean) (42° C. for 3 hours, control without polyol = 100%, listed as Glycerol 20%): 112* % | % enzymatic activity of DispersinB (Mean) (42° C. for 3 hours, control without polyol = 100%, listed as Glycerol 30%): 116* % | temperature stabilizing effect on DispersinB at elevated temperatures: exhibited temperature stabilizing effect | % enzymatic activity of DispersinB (Mean) (52° C. for 3 hours, control without polyol = 100%, listed as Glycerol 5%): 16* % | % enzymatic activity of DispersinB (Mean) (52° C. for 3 hours, control without polyol = 100%, listed as Glycerol 10%): 31* % | % enzymatic activity of DispersinB (Mean) (52° C. for 3 hours, control without polyol = 100%, listed as Glycerol 20%): 92* % | % enzymatic activity of DispersinB (Mean) (52° C. for 3 hours, control without polyol = 100%, listed as Glycerol 30%): 93* %
